Experimental data taken from article PMC10913484, “Hydroxyhexylitaconic acids as potent IMP-type metallo-β-lactamase inhibitors for controlling carbapenem resistance in Enterobacterales” (Microbiology Spectrum, 2024).
Like-named read-outs stand apart in the source and are kept apart here.

Assays:
[1] = tested on: K. pneumoniae AR0076 (VIM-1); assay: Susceptibility test, clinical isolate; assay type: cell-based; conditions: Klebsiella pneumoniae
Procedure: (§1) Susceptibility testing, based on the microdilution method, was performed according to the guidelines of the Clinical and Laboratory Standards Institute ([36]).

[2] = tested on: K. oxytoca NUBL-827 (IMP-1); assay: Susceptibility test, clinical isolate; assay type: cell-based; conditions: Klebsiella oxytoca
Procedure: as §1

[3] = tested on: K. pneumoniae NUBL-8 (IMP-1); assay: Susceptibility test, clinical isolate; assay type: cell-based; conditions: Klebsiella pneumoniae
Procedure: as §1

E. coli 465 (IMP-1) = assay: Susceptibility test, clinical isolate; assay type: cell-based; conditions: Escherichia coli
Procedure: as §1

[4] = tested on: P. penneri E11-M475 (IMP-1); assay: Susceptibility test, clinical isolate; assay type: cell-based; conditions: Proteus penneri
Procedure: as §1

[5] = tested on: K. pneumoniae MS5674 (NDM-1/VIM-1); assay: Susceptibility test, clinical isolate; assay type: cell-based; conditions: Klebsiella pneumoniae
Procedure: as §1

E. coli NUBL-24 (IMP-1) = assay: Susceptibility test, clinical isolate; assay type: cell-based; conditions: Escherichia coli
Procedure: as §1

[6] = tested on: K. pneumoniae AR0034 (IMP-4); assay: Susceptibility test, clinical isolate; assay type: cell-based; conditions: Klebsiella pneumoniae
Procedure: as §1

E. coli 426 (IMP-1) = assay: Susceptibility test, clinical isolate; assay type: cell-based; conditions: Escherichia coli
Procedure: as §1

E. coli NUBL-22 (IMP-6) = assay: Susceptibility test, clinical isolate; assay type: cell-based; conditions: Escherichia coli
Procedure: as §1

[7] = tested on: K. pneumoniae NUBL-23 (IMP-6); assay: Susceptibility test, clinical isolate; assay type: cell-based; conditions: Klebsiella pneumoniae
Procedure: as §1

[8] = tested on: E. cloacae NUBL-5 (IMP-1); assay: Susceptibility test, clinical isolate; assay type: cell-based; conditions: Enterobacter cloacae
Procedure: as §1

IMP-1 = target: T1, IMP-1 (Serratia marcescens, UniProt P52699); assay type: binding; conditions: DSF; control protein 52.5°C
T1 construct: made in house
T1 sequence (P52699 19-246, looked up, species assumed): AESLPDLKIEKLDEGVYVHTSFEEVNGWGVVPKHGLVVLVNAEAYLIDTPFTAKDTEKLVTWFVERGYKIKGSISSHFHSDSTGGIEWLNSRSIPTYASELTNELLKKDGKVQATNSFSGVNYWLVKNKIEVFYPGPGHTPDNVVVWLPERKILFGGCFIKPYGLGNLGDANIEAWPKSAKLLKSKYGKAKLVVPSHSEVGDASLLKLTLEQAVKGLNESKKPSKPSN
Procedure: The DSF assay was performed using the Protein Thermal Shift Dye Kit (Thermo Fisher Scientific) and StepOnePlus Real-Time PCR Systems (Applied Biosystems) as follows: 2 µL of IMP-1 enzyme (100 µM), 1 µL of EDTA or HHIA solution (5 mM), 2.5 µL of diluted Protein Thermal Shift Dye (32×), 5 µL of Protein Thermal Shift buffer, and 9.5 µL of water were mixed in a test tube and incubated for 15 min at 4°C. Four replicates of each sample were performed. The fluorescence was monitored at 0.7°C increments from 4°C to 99°C. The relative fluorescence units were fitted with the Boltzmann equation using the TSA-CRAFT software to determine the melting point (Tm) ([47]).

E. coli DH5α pCL-SMB-1 = assay: Susceptibility test (microdilution), transformant; assay type: cell-based; conditions: for MPM MIC: E. coli DH5α pCL-SMB-1
Procedure: as §1

E. coli DH5α pBC-IMP-1 = assay: Susceptibility test (microdilution), transformant; assay type: cell-based; conditions: Escherichia coli
Procedure: as §1

E. coli DH5α pBC-NDM-1 = assay: Susceptibility test (microdilution), transformant; assay type: cell-based; conditions: for MPM MIC: E. coli DH5α pBC-NDM-1
Procedure: as §1

[9] = +HHIA 6.25 µg/mL, read-out: IPM MIC
[10] = +HHIA 6.25 μg/mL, read-out: MPM MIC
[11] = +HHIA 25 µg/mL, read-out: IPM MIC
[12] = +HHIA 25 μg/mL, read-out: MPM MIC
[13] = +HHIA 100 µg/mL, read-out: IPM MIC
[14] = +HHIA 100 μg/mL, read-out: MPM MIC
[15] = Escherichia coli, read-out: MPM MIC

C=C(C(=O)O)C(CCCCCCO)C(=O)O (stereo not drawn) [10-HHIA, 10-hydroxyhexylitaconic acid]
≤ 0.0625 µg/mL: MIC (E. coli DH5α pBC-IMP-1; read-out: MPM MIC, +agent 100 μg/mL)
0.5 µg/mL: MIC [3, 13] | MIC (E. coli NUBL-24 (IMP-1); +HHIA 25 μg/mL, E. coli NUBL-24 (IMP-1), read-out: MPM MIC) | MIC ([6]; +HHIA 25 μg/mL, K. pneumoniae AR0034 (IMP-4), read-out: MPM MIC) | MIC ([6]; +HHIA 100 µg/mL, K. pneumoniae AR0034 (IMP-4), read-out: IPM MIC) | MIC (E. coli NUBL-22 (IMP-6); [11]) | MIC (E. coli NUBL-22 (IMP-6); [13]) | MIC [7, 9] | MIC [7, 13]
32 µg/mL: MIC [1, 9] | MIC [1, 10] | MIC [1, 11] | MIC [1, 12] | MIC [1, 14] | MIC [5, 9] | MIC [5, 13] | MIC [7, 10] | MPM MIC (E. coli DH5α pCL-SMB-1; +agent 25 μg/mL) | MPM MIC (E. coli DH5α pCL-SMB-1; +agent 100 μg/mL) | MIC (E. coli DH5α pCL-SMB-1; [15])
> 64 µg/mL: MIC [4, 9] | MIC [4, 10] | MIC [4, 11] | MIC [4, 12] | MIC [5, 10] | MIC [5, 12]
0.125 µg/mL: MIC (E. coli NUBL-24 (IMP-1); read-out: MPM MIC) | MIC ([6]; read-out: MPM MIC) | MIC (E. coli DH5α pBC-IMP-1; read-out: MPM MIC, +agent 25 μg/mL)
8 µg/mL: MIC [2, 9] | MIC [2, 12] | MIC [3, 10] | MIC (E. coli 426 (IMP-1); [9]) | MIC (E. coli 426 (IMP-1); [10]) | MIC (E. coli NUBL-22 (IMP-6); [12]) | MIC [8, 9] | MIC [8, 14]
1 µg/mL: MIC [2, 14] | MIC [3, 11] | MIC (E. coli 465 (IMP-1); [13]) | MIC (E. coli NUBL-24 (IMP-1); +HHIA 25 µg/mL, E. coli NUBL-24 (IMP-1), read-out: IPM MIC) | MIC (E. coli NUBL-24 (IMP-1); +HHIA 100 µg/mL, E. coli NUBL-24 (IMP-1), read-out: IPM MIC) | MIC ([6]; +HHIA 25 µg/mL, K. pneumoniae AR0034 (IMP-4), read-out: IPM MIC) | MIC (E. coli 426 (IMP-1); [12]) | MIC (E. coli NUBL-22 (IMP-6); [9]) | MIC (E. coli NUBL-22 (IMP-6); [14]) | MIC [8, 13]
2 µg/mL: MIC [2, 13] | MIC [3, 9] | MIC [3, 12] | MIC ([6]; +HHIA 6.25 µg/mL, K. pneumoniae AR0034 (IMP-4), read-out: IPM MIC) | MIC (E. coli 426 (IMP-1); [13]) | MIC [7, 12]
16 µg/mL: MIC [1, 13] | MIC [2, 10] | MIC (E. coli 465 (IMP-1); [9]) | MIC (E. coli 465 (IMP-1); [10]) | MIC [4, 14] | MIC (E. coli NUBL-22 (IMP-6); [10]) | MIC [8, 10] | MIC [8, 12]
4 µg/mL: MIC [2, 11] | MIC (E. coli 465 (IMP-1); [11]) | MIC (E. coli 465 (IMP-1); [12]) | MIC (E. coli NUBL-24 (IMP-1); +HHIA 6.25 µg/mL, E. coli NUBL-24 (IMP-1), read-out: IPM MIC) | MIC (E. coli NUBL-24 (IMP-1); +HHIA 6.25 μg/mL, E. coli NUBL-24 (IMP-1), read-out: MPM MIC) | MIC ([6]; +HHIA 6.25 μg/mL, K. pneumoniae AR0034 (IMP-4), read-out: MPM MIC) | MIC (E. coli 426 (IMP-1); [11]) | MIC [8, 11]
0.25 µg/mL: MIC [3, 14] | MIC (E. coli 465 (IMP-1); [14]) | MIC (E. coli 426 (IMP-1); [14]) | MIC [7, 11] | MIC [7, 14]
64 µg/mL: MIC [4, 13] | MIC [5, 11] | MIC [5, 14] | MPM MIC (E. coli DH5α pBC-NDM-1; +agent 25 μg/mL) | MPM MIC (E. coli DH5α pBC-NDM-1; +agent 100 μg/mL) | MIC (E. coli DH5α pBC-NDM-1; [15])
55.6 °C: Melting temperature (Tm) of treated IMP-1 (IMP-1)
